≈ marks a conversion by molar mass, not a printed value. Entries after “also recorded” stand apart in the source; their conditions may differ. Where two headings read alike, the source gives them in different places.
Tests used:
[1] = target: Acetylcholinesterase (AChE) from Electrophorus electricus (electrical eels) type VI-S (Electrophorus electricus, UniProt O42275); experiment: biochemical; assay type: biochemical; conditions: for inhibition at 100 µg/mL: read-out: AChE inhibition (%)
Protocol: Coloring agent 5-5′dithiobis [2-nitrobenzoicacid] (DTNB) was purchased from ACROS (Geel, Belgium). Silica gel (Kieselgel 60, 230–400 mesh atm) was purchased from Merck (Darmstadt, Germany). The solvents were of analytical grade and used as received.
The in vitro AChE inhibition assay was evaluated using a spectrophotometry method developed by Ellman with some modifications. […] Plant extracts were dissolved in dimethyl sulfoxide (DMSO) and tested at a final concentration of 0.2 mg/mL, while compounds were tested at 0.1 mg/mL. The final concentration of DMSO was fixed at 1% in the 96-well plate. In a 96-well plate, 178 µL of 50 mM phosphate buffer, 2 µL of […] compound and 20 mg/mL extract, and 10 µL of 0.5 U/mL AChE were added. The first incubation period was 15 min at 25 °C. Five microliters of 14 mM ATCI substrate and 10 mM of the color indicator, DTNB, were added equally into each well and the well was then incubated at 25 °C for 30 min to initiate the enzyme reaction. The absorbance was measured at 415 nm using Promega Glomax® Multi Plus Reader (Promega, Madison, WI, USA). […] The percentage of inhibition was calculated using formula (1):(1) Percentage Inhibition (%) = Absorbance of negative control − Absorbance of test sample/ Absorbance of negative control × 100
IC50 values of plant crude extract, fractions, and compounds were calculated from the graph of percentage of inhibition versus extract concentrations using Microsoft Excel. GraphPad Prism software was used to generate the graphs.

[2] = test system: AChE; conditions: individual compounds; cited from earlier work
[3] = cited from earlier work
[4] = isolated compounds at 0.1 mg/mL

Acetylcholinesterase (AChE) from Electrophorus electricus (electrical eels) type VI-S, sequence (O42275 24-633): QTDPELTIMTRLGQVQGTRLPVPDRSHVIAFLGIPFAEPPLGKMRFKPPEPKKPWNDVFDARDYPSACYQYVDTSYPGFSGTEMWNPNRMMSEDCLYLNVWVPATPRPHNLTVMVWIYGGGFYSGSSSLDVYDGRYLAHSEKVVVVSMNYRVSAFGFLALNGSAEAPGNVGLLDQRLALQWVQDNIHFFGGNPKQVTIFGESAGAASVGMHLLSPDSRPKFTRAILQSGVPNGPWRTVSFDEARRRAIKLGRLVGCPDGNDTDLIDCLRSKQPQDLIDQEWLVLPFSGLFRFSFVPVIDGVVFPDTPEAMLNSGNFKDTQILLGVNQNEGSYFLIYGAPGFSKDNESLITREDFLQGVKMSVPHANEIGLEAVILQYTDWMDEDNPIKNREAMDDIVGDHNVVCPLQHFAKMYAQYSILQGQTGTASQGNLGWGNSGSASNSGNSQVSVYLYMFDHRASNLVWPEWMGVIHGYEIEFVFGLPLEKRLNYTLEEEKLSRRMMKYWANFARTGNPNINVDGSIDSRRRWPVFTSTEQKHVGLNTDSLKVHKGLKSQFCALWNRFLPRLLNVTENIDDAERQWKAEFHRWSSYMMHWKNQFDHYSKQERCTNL

COc1c(-c2ccc(O)c(O)c2)oc2cc(O)cc(O)c2c1=O [Compound 1, 3-methoxyquercetin]
AChE activity relative to quercetin [1]: approximately three times higher than quercetin | AChE inhibitory activity (in words) [1, 4]: moderate inhibition | IC50 ([1]; mean ± s.d. (n = 3), read-out: AChE Inhibition (IC50)): 83.7 ± 4.67 µM

CCC=CCC=CCC=CCCCCCCCC(=O)O [Compound 3, 9,12,15-octadecatrienoic acid]
AChE inhibitory activity (in words) [1]: weak inhibitory activity; also recorded: not active | inhibition at 100 µg/mL [1]: < 50%

CC[C@H](CC[C@@H](C)[C@H]1CC[C@H]2[C@@H]3CC=C4C[C@@H](O)CC[C@]4(C)[C@H]3CC[C@]12C)C(C)C [Compound 4, β-sitosterol]
inhibition at 100 µg/mL [1]: < 50% | IC50 against AChE [2]: 55 µg/mL (≈ 133 µM)

CC[C@H](/C=C/[C@@H](C)[C@H]1CC[C@H]2[C@@H]3CC=C4C[C@@H](O)CC[C@]4(C)[C@H]3CC[C@]12C)C(C)C [Compound 5, stigmasterol]
inhibition at 100 µg/mL [1]: < 50% | IC50 against AChE [2]: 63 µg/mL (≈ 153 µM)

CCCCCCCCCCCCCCCCCCO [Compound 6, 1-octadecanol]
AChE inhibitory activity (in words) [1, 4]: weak inhibitory activity; also recorded: not active | inhibition at 100 µg/mL [1]: < 50%

COc1ccc(-c2cc(=O)c3c(O)c(OC)c(O)c(OC)c3o2)cc1 [nevadensin]
BBB permeability [3]: high BBB permeability

COc1cc(-c2cc(=O)c3c(O)c(OC)c(O)c(OC)c3o2)ccc1O [sudachitin]
BBB permeability [3]: high BBB permeability

aceronin
BBB permeability [3]: high BBB permeability

From publication PMC7582324, “Potential Anti-Acetylcholinesterase Activity of Cassia timorensis DC” (Molecules, 2020)
